Test results: ChEMBL document CHEMBL4813993, “Design and synthesis of diosgenin derivatives as apoptosis inducers through mitochondria-related pathways” (Eur J Med Chem, 2021)
Active and inactive are the calls of the source. The calls are words filed in the database; no cut-off is given here.

Columns and labels:
K562 [1] = assay: Cytotoxicity against human K562 cells assessed as inhibition of cell growth incubated for 48 hrs by CCK-8 assay; type: functional, cell-based; conditions: K562, 48 h
T-24 = assay: Cytotoxicity against human T24 cells assessed as inhibition of cell growth incubated for 48 hrs by CCK-8 assay; type: functional, cell-based; conditions: T-24, 48 h
MKN-45 = assay: Cytotoxicity against human MNK45 cells assessed as inhibition of cell growth incubated for 48 hrs by CCK-8 assay; type: functional, cell-based; conditions: MKN-45, 48 h
HepG2 = assay: Cytotoxicity against human HepG2 cells assessed as inhibition of cell growth incubated for 48 hrs by CCK-8 assay; type: functional, cell-based; conditions: HepG2, 48 h
A549 [2] = assay: Cytotoxicity against human A549 cells assessed as inhibition of cell growth incubated for 48 hrs by CCK-8 assay; type: functional, cell-based; conditions: A549, 48 h
MCF7 = assay: Cytotoxicity against human MCF7 cells assessed as inhibition of cell growth incubated for 48 hrs by CCK-8 assay; type: functional, cell-based; conditions: MCF7, 48 h
K562 [3] = assay: Potency index, ratio of diosgenin IC50 to test compound IC50 for cytotoxicity against human K562 cells assessed as inhibition of cell growth incubated for 48 hrs by CCK-8 assay; type: functional
K562 [4] = assay: Potency index, ratio of 5-FU IC50 to test compound IC50 for cytotoxicity against human K562 cells assessed as inhibition of cell growth incubated for 48 hrs by CCK-8 assay; type: functional
A549 [5] = assay: Potency index, ratio of diosgenin IC50 to test compound IC50 for cytotoxicity against human A549 cells assessed as inhibition of cell growth incubated for 48 hrs by CCK-8 assay; type: functional
K562 [6] = assay: Induction of apoptosis in human K562 cells assessed as decrease in cell density at 3 to 12 uM incubated for 48 hrs by light microscopic analysis; type: functional, cell-based; conditions: dose 3-12 µM
K562 [7] = assay: Induction of apoptosis in human K562 cells assessed as increase in number of broken cells at 3 to 12 uM incubated for 48 hrs by light microscopic analysis; type: functional, cell-based; conditions: dose 3-12 µM
K562 [8] = assay: Induction of apoptosis in human K562 cells assessed as decrease in cell density at 3 to 12 uM incubated for 48 hrs by Hoechst 33342/PI staining based fluorescence microscopic analysis; type: functional; conditions: dose 3-12 µM
K562 [9] = assay: Induction of apoptosis in human K562 cells assessed as chromatin condensation at 3 to 12 uM incubated for 48 hrs by Hoechst 33342/PI staining based fluorescence microscopic analysis; type: functional, cell-based; conditions: dose 3-12 µM
K562 [10] = assay: Induction of apoptosis in human K562 cells assessed as nuclear fragmentation at 3 to 12 uM incubated for 48 hrs by Hoechst 33342/PI staining based fluorescence microscopic analysis; type: functional, cell-based; conditions: dose 3-12 µM
K562 [11] = assay: Induction of apoptosis in human K562 cells assessed as early apoptotic cells at 3 uM incubated for 48 hrs by annexin V-FITC/PI staining based flow cytometry (reference value: 0.32 %); type: functional
K562 [12] = assay: Induction of apoptosis in human K562 cells assessed as late apoptotic cells at 3 uM incubated for 48 hrs by annexin V-FITC/PI staining based flow cytometry (reference value: 0.11 %); type: functional
K562 [13] = assay: Induction of apoptosis in human K562 cells assessed as early apoptotic cells at 6 uM incubated for 48 hrs by annexin V-FITC/PI staining based flow cytometry (reference value: 0.32 %); type: functional
K562 [14] = assay: Induction of apoptosis in human K562 cells assessed as late apoptotic cells at 6 uM incubated for 48 hrs by annexin V-FITC/PI staining based flow cytometry (reference value: 0.11 %); type: functional
K562 [15] = assay: Induction of apoptosis in human K562 cells assessed as early apoptotic cells at 12 uM incubated for 48 hrs by annexin V-FITC/PI staining based flow cytometry (reference value: 0.32 %); type: functional
K562 [16] = assay: Induction of apoptosis in human K562 cells assessed as late apoptotic cells at 12 uM incubated for 48 hrs by annexin V-FITC/PI staining based flow cytometry (reference value: 0.11 %); type: functional
K562 [17] = assay: Induction of ROS generation in human K562 cells at 3 uM incubated for 48 hrs by DCFH-DA staining-based flow cytometry (reference value: 3.68 %); type: functional
K562 [18] = assay: Induction of ROS generation in human K562 cells at 6 uM incubated for 48 hrs by DCFH-DA staining-based flow cytometry (reference value: 3.68 %); type: functional
K562 [19] = assay: Induction of ROS generation in human K562 cells at 12 uM incubated for 48 hrs by DCFH-DA staining-based flow cytometry (reference value: 3.68 %); type: functional
K562 [20] = assay: Induction of mitochondrial membrane potential loss in human K562 cells assessed as cell population with intact mitochondrial membrane potential at 3 uM after 48 hrs by JC1 dye-based flow cytometry analysis (reference value: 96.48%); type: functional
K562 [21] = assay: Induction of mitochondrial membrane potential loss in human K562 cells assessed as cell population with mitochondrial membrane potential collapse at 3 uM after 48 hrs by JC1 dye-based flow cytometry analysis (reference value: 2.75%); type: functional
K562 [22] = assay: Induction of mitochondrial membrane potential loss in human K562 cells assessed as cell population with intact mitochondrial membrane potential at 6 uM after 48 hrs by JC1 dye-based flow cytometry analysis (reference value: 96.48%); type: functional
K562 [23] = assay: Induction of mitochondrial membrane potential loss in human K562 cells assessed as cell population with mitochondrial membrane potential collapse at 6 uM after 48 hrs by JC1 dye-based flow cytometry analysis (reference value: 2.75%); type: functional
K562 [24] = assay: Induction of mitochondrial membrane potential loss in human K562 cells assessed as cell population with intact mitochondrial membrane potential at 12 uM after 48 hrs by JC1 dye-based flow cytometry analysis (reference value: 96.48%); type: functional
K562 [25] = assay: Induction of mitochondrial membrane potential loss in human K562 cells assessed as cell population with mitochondrial membrane potential collapse at 12 uM after 48 hrs by JC1 dye-based flow cytometry analysis (reference value: 2.75%); type: functional
K562 [26] = assay: Induction of apoptosis in human K562 cells assessed as increase in Bax gene expression at 3 to 12 uM after 48 hrs by SYBR green dye-based qRT-PCR analysis; type: functional, cell-based; conditions: dose 3-12 µM
K562 [27] = assay: Induction of apoptosis in human K562 cells assessed as increase in cleaved caspase 9 gene expression at 3 to 12 uM after 48 hrs by SYBR green dye-based qRT-PCR analysis; type: functional, cell-based; conditions: dose 3-12 µM
K562 [28] = assay: Induction of apoptosis in human K562 cells assessed as increase in cleaved caspase 3 gene expression at 3 to 12 uM after 48 hrs by SYBR green dye-based qRT-PCR analysis; type: functional, cell-based; conditions: dose 3-12 µM
K562 [29] = assay: Induction of apoptosis in human K562 cells assessed as increase in cleaved PARP gene expression at 3 to 12 uM after 48 hrs by SYBR green dye-based qRT-PCR analysis; type: functional, cell-based; conditions: dose 3-12 µM
K562 [30] = assay: Induction of apoptosis in human K562 cells assessed as increase in Bax protein expression at 3 to 12 uM after 48 hrs by Western blot analysis; type: functional, cell-based; conditions: dose 3-12 µM
K562 [31] = assay: Induction of apoptosis in human K562 cells assessed as increase in cleaved caspase 9 protein expression at 3 to 12 uM after 48 hrs by Western blot analysis; type: functional, cell-based; conditions: dose 3-12 µM
K562 [32] = assay: Induction of apoptosis in human K562 cells assessed as increase in cleaved caspase 3 protein expression at 3 to 12 uM after 48 hrs by Western blot analysis; type: functional, cell-based; conditions: dose 3-12 µM
K562 [33] = assay: Induction of apoptosis in human K562 cells assessed as increase in cleaved PARP protein expression at 3 to 12 uM after 48 hrs by Western blot analysis; type: functional, cell-based; conditions: dose 3-12 µM
K562 [34] = assay: Induction of apoptosis in human K562 cells assessed as decrease in Bcl-2 gene expression after 48 hrs by SYBR green dye-based qRT-PCR analysis; type: functional, cell-based; conditions: dose 3-12 µM
K562 [35] = assay: Induction of apoptosis in human K562 cells assessed as decrease in Bcl-2 protein expression after 48 hrs by Western blot analysis; type: functional, cell-based; conditions: dose 3-12 µM
K562 [36] = assay: Induction of apoptosis in human K562 cells assessed as increase in cytochrome c protein expression after 48 hrs by Western blot analysis; type: functional, cell-based; conditions: dose 3-12 µM

**Q.** Which results are given for CC(=O)O[C@H]1CC[C@@]2(C)C(=CC[C@H]3[C@@H]4C[C@@H]5O[C@H](CC[C@@H](C)COC(=O)[C@@H](N)Cc6c[nH]c7ccccc67)[C@@H](C)[C@@H]5[C@@]4(C)CC[C@@H]32)C1?
**A.** IC50 (K562 [1]): 4.41 µM; IC50 (T-24): 6.34 µM; IC50 (MKN-45): 16.2 µM; IC50 (HepG2): 12.7 µM; IC50 (A549 [2]): 7.82 µM; IC50 (MCF7): 11.3 µM; Ratio IC50 (K562 [3]): 6.8; Ratio IC50 (K562 [4]): 4.3; Ratio IC50 (A549 [5]): 4.2; Activity (K562 [6]): Active; Activity (K562 [7]): Active; Activity (K562 [8]): Active; Activity (K562 [9]): Active; Activity (K562 [10]): Active; Activity (K562 [11]): 4.78%; Activity (K562 [12]): 9.13%; Activity (K562 [13]): 11.42%; Activity (K562 [14]): 14.13%; Activity (K562 [15]): 21.45%; Activity (K562 [16]): 18.85%; Activity (K562 [17]): 16.85%; Activity (K562 [18]): 22.26%; Activity (K562 [19]): 34.25%; Activity (K562 [20]): 90.01%; Activity (K562 [21]): 8.78%; Activity (K562 [22]): 75.88%; Activity (K562 [23]): 21.23%; Activity (K562 [24]): 27.71%; Activity (K562 [25]): 67.81%; Activity (K562 [26]): Active; Activity (K562 [27]): Active; Activity (K562 [28]): Active; Activity (K562 [29]): Active; Activity (K562 [30]): Active; Activity (K562 [31]): Active; Activity (K562 [32]): Active; Activity (K562 [33]): Active; Activity (K562 [34]): Dose-Dependent Effect; Activity (K562 [35]): Dose-Dependent Effect; Activity (K562 [36]): Dose-Dependent Effect
